From US20100249064A1, “METHODS AND COMPOSITIONS FOR TREATING DISEASES AND CONDITIONS INVOLVING HIGHER MOLECULAR WEIGHT HYALURONAN” (University of Chicago, priority 2007, published 2010)

Key:
Human pulmonary EC = assay: TER, HABP2/C1INH regulation of EC barrier function (Examples 3 and 6); assay type: cell-based; settings: 100 nM HA or 10 μg/ml purified HABP2
Experimental: Measurement of transendothelial monolayer electrical resistance (TER). EC were grown to confluence in polycarbonate wells containing evaporated gold microelectrodes, and TER measurements performed using an electrical cell-substrate impedance sensing system obtained from Applied Biophysics (Troy, N.Y.) as previously described in detail (Garcia et al. 2001). TER values from each microelectrode were pooled at discrete time points and plotted versus time as the mean±S.E.
Determination of EC barrier function. Human pulmonary endothelial cells were grown to confluence in polycarbonate wells containing evaporated gold microelectrodes (surface area, 10-3 cm^2) in series with a large gold counter electrode (1 cm^2) connected to a phase-sensitive lock-in amplifier as described previously. Measurements of transendothelial electrical resistance (TER) were performed using an electrical cell-substrate impedance sensing system (ECIS) (Applied BioPhysics Inc.). Briefly, current was applied across the electrodes by a 4,000-Hz AC voltage source with amplitude of 1 V in series with a 1 MS/resistance to approximate a constant current source (˜1 μA). The in-phase and out-of-phase voltages between the electrodes were monitored in real time with the lock-in amplifier and subsequently converted to scalar measurements of transendothelial impedance, of which resistance was the primary focus. TER was monitored for 30 minutes to establish a baseline resistance (R0) which, for pulmonary endothelium, was typically between 8 to 12×10^3Ω (wells with R0<7×10^3Ω were rejected). As cells adhere and spread out on the microelectrode, TER increases (maximal at confluence), whereas cell retraction, rounding, or loss of adhesion was reflected by a decrease in TER. These measurements provide a highly sensitive biophysical assay that indicates the state of cell shape and focal adhesion. Values from each microelectrode were pooled at discrete time points and plotted versus time as the mean±SE of the mean (Garcia et al., 2001).

caveolin-1 = assay: Caveolin-1 expression in mouse lung homogenates (immunoblot); assay type: in vivo; settings: HMW-HA+LPS
Experimental: Animal Preparation and Treatment. Male C57BL/6J, B6129N2, CD44^−/− or caveolin-1^−/− mice (8-10 weeks, Jackson Laboratories, Bar Harbor, Me.) were anesthetized with intraperitoneal ketamine (150 mg/kg) and acetylpromazine (15 mg/kg) before exposure of the right internal jugular vein via neck incision. LPS (2.5 mg/kg) or water (control) were instilled intratracheally. Four hours later, mice receive high MW HA (1.5 mg/kg) or water control through the internal jugular vein. The animals were allowed to recover for 24 hours after LPS before bronchioalveolar lavage protein and cytokine concentration and/or lung immunohistochemistry/immunoblot analysis (Peng et al., 2004).
Immunoblot analysis of CD44 and Caveolin-1 expression in control, LPS- and HA-treated mouse lung homogenates. CD44 is highly likely to be important in lung disease as CD44−/− mice develop lung fibrosis, inflammatory cell recruitment and accumulation of hyaluronan fragments at sites of lung injury (Teder et al., 2002). […] Caveolin-1 can be differentially regulated in various models of acute lung injury (ALI). Monocrotaline-induced rodent pulmonary hypertension results in a loss of lung EC caveolin-1 expression (Mathew et al., 2004). In contrast, there is no change in pulmonary caveolin-1 expression in lipopolyscaaharide (LPS)-induced sepsis with lung injury (Garrean et al., 2006). […]

hyaluronidase = assay: VEGF-induced hyaluronidase expression (immunoblot); assay type: cell-based, human; settings: 100 nM HMW-HA, 100 nM VEGF
Experimental: Determination of the role of HMW-HA/CD44 interactions in regulating hyaluronidase activity and angiogenesis in vitro. Human pulmonary microvascular EC (HPMVEC) (Cambrex), grown in EBM-2 complete medium (Cambrex) at 37° C. in a humidified atmosphere of 5% CO2, 95% air, with passages 6-10 used for experimentation was treated with or without 100 nM HMW-HA and/or 100 nM VEGF in the presence or absence of CD44 isoform-specific blocking antibodies (EMD Biosciences), siRNA (scramble, CD44, Hyal-1, Hyal-2, Hyal-3 or Hyal-4) and the potent hyaluronidase inhibitor, L-ascorbic acid 6-hexadecanoate (Botzki et al., 2004) (Sigma). […] Treated EC will either be analyzed for protein expression, hyaluronidase activity or VEGF-induced proliferation, migration or tube formation. […] Cells from the upper and lower chamber were quantitated using the CellTiter96™ MTS assay (Promega, San Luis Obispo, Calif.) and read at 492 nm. % migration was defined as the # of cells in the lower chamber […] the number of cells in both the upper and lower chamber. Each assay was set up in triplicate, repeated at least five times and analyzed statistically by Student's t test (with statistical significance set at P<0.05). […] The in vitro cell proliferation assay was analyzed by measuring increases in cell number using the CellTiter96™ MTS assay (Promega, San Luis Obispo, Calif.) and read at 492 nm. […]

Substance | change in TER / EC barrier function (Human pulmonary EC; listed as low MW hyaluronan) | change in TER / EC barrier function (Human pulmonary EC; listed as High MW hyaluronan) | caveolin-1 expression in mouse lungs (caveolin-1) | VEGF-induced hyaluronidase expression (hyaluronidase)
hyaluronan [LMW-HA, reference compound] | induced negative TER changes ultimately resulting in EC barrier disruption |  |  | 
hyaluronan [HMW-HA] |  | increased transendothelial monolayer electrical resistance (TER) | did not significantly alter caveolin-1 expression | inhibited VEGF-induced hyaluronidase expression
